Target: T1, AlaRS G102R binding to GST-Nrp1 b1 (Homo sapiens, UniProt P49588, G102R)
T1 construct: made in house; host or cells: E. coli BL21 (DE3), pET-21a for AlaRS
T1 sequence (P49588 1-968 G102R): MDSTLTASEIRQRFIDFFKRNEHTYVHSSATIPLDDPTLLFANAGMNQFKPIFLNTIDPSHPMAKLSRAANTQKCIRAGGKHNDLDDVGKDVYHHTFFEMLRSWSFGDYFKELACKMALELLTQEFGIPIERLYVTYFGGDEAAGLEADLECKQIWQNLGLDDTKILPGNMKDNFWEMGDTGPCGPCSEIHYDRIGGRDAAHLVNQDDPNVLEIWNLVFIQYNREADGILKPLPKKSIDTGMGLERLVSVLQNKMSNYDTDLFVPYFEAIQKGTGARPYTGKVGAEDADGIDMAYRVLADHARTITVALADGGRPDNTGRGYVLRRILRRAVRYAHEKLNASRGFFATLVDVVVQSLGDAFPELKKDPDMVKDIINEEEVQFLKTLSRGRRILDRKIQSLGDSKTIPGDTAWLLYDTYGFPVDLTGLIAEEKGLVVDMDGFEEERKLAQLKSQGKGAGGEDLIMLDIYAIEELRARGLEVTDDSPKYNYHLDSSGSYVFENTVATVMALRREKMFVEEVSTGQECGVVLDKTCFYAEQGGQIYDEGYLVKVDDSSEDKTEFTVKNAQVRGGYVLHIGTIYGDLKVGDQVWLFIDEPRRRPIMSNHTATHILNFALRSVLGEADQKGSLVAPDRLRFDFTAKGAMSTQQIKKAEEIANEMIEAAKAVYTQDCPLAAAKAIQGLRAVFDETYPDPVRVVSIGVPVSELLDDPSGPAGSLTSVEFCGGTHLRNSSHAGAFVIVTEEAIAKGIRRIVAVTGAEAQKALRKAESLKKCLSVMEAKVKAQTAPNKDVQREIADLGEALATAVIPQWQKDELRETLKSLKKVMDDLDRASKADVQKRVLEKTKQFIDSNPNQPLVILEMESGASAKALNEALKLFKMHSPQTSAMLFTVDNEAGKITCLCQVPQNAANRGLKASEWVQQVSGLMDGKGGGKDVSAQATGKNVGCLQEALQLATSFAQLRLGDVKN
Assay: GST pull down assay
Settings: 20 µM Tanshinone I, ImageJ, average of three repeats
Method: To further investigate whether Tanshinone I-induced conformational changes in AlaRS CMT mutants affect their interaction with Nrp1, Co-IP experiments were performed in cells treated with Tanshinone I. By comparing Co-IP results obtained before and after treatment, we assessed the influence of the drug on the binding strength and mode between the AlaRS CMT mutants and Nrp1. […] To confirm the direct effect of Tanshinone I on the interaction between AlaRS CMT mutants and Nrp1, pull-down experiments were performed. […] Given that the interaction between AlaRS mutants and Nrp1 is associated with disease progression in CMT, the ability of Tanshinone I to disrupt this binding highlights its potential to intervene in the pathogenic mechanisms of these diseases.
Figure 7 The impact of Tanshinone I on the interaction between AlaRS mutants and Nrp1. (A) Co-IP assays were conducted to assess the binding between HA-AlaRS mutants and Nrp1, both with and without treatment with 20 µM Tanshinone I for 24 h. […] (C) Pull down assay was performed to detect the binding between AlaRS mutants and GST-Nrp1 b1 with or without 20 µM Tanshinone I. (D) Relative quantification statistics of the AlaRS mutants pulled down from the GST pull down experiments after Tanshinone I treatment were performed using ImageJ. (E) The cell viability of 293T and NSC34 cells treated with different concentrations of Tanshinone I was assessed using the CCK-8 assay over a 24 h period. TEXT PRINTED IN THE PICTURE: (B) Tanshinone I: Mean density band (N71Y): 0.60; Mean density band (G102R): 0.53; Mean density band (R326W): 0.50; Mean density band (R329H): 0.50; Mean density band (E337K): 0.62 | (D) Tanshinone I: Mean density band (N71Y): 0.82; Mean density band (G102R): 0.76; Mean density band (R326W): 0.84; Mean density band (R329H): 0.84; Mean density band (E337K): 0.90
To detect the direct interactions between the mutant proteins and Nrp1 in vitro, we performed a Glutathione S-transferase (GST) pull-down assay. AlaRS mutants fused with 6 × His were purified with Ni-NTA beads, followed by chromatography on a HiTrap Q HP column. Nrp1 b1 fragments fused with GST were purified with Glutathione Beads (#SA008100, Smart-Lifesciences, Changzhou, China). For GST pull-down assays, 1000 μg of each GST-fused Nrp1 b1 fragment was mixed with 200 μg of 6 × His-tagged fusion protein in binding buffer (50 mM Tris-HCl pH 7.5, 20 mM NaCl, 5% glycerol, 5 mM DTT with 0.1% BSA) at 4 °C overnight. The mixture was next incubated with 30 μL glutathione beads at 4 °C with constant rotation for 2–4 h. Subsequently, the bead/protein complex was washed three times, and eluted with 30 μL 2 × SDS sample buffer. The samples were then subjected to SDS-PAGE analysis. The experiment was repeated three times.

SMILES: Cc1coc2c1C(=O)C(=O)c1c-2ccc2c(C)cccc12 [Tanshinone I]
- Mean density band (G102R), relative quantification of AlaRS mutant pulled down: 0.76

Source: paper PMC11509018, “Evaluation of the Role of Tanshinone I in an In Vitro System of Charcot-Marie-Tooth Disease Type 2N” (International Journal of Molecular Sciences, 2024)
